Laboratory results published in US11091423B2, “Reagents and methods for esterification” (Wisconsin Alumni Research Foundation, priority 2013, dated 2021).

Target: T1, ribonuclease A (RNase A) (Bos taurus, UniProt P61823)
T1 sequence (P61823 27-150): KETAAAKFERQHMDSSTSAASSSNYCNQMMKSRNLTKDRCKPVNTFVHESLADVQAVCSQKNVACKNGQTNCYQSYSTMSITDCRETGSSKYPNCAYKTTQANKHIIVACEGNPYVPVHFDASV
Assay: RNase A labeling (esterification of carboxyl groups), extent by MALDI, labelled residues by trypsin digestion and mass spectrometry
Assay type: biochemical
Conditions: for extent of labeling of RNase A (average number of the eleven carboxylates esterified): 10 equivalents of diazo compound; for RNase A residues labelled (chemoselectivity): trypsin digestion coupled with mass spectrometry
Method: To address biocompatibility of diazo-compounds for esterification more directly, the relative esterification efficiency of these diazo compounds was compared with the eleven carboxyl groups present in ribonuclease A (RNase A).[24]
Only after the addition of 200 equivalents was any esterification with diazo-acetamide 1 observed which correlates with its lack of selectivity under aqueous conditions (Scheme 2).
Using trypsin digestion coupled with mass spectrometry, it was determined which residues were labelled and the results fit well with the observed chemoselectivity of each diazo compound. […] This provides further evidence that properly tuned diazo compounds can not only attain high levels of labelling, but can also selectively label specific residues.
Ribonuclease A (0.001 g, 0.073 μmol) was dissolved in MES buffer (10 mM, pH=5.5, 0.1 mL) and diazobenzylacetamide (0.0026 g, 14.6 μmol) was dissolved in acetonitrile (0.1 mL). The two solutions were combined and the reaction was allowed to stir 4 hours at 37° C.
Ribonuclease A (0.001 g, 0.073 μmol) was dissolved in MES buffer (10 mM, pH=5.5, 0.1 mL) and a stock solution of diazofluorene in acetonitrile was made (Stock solution: 0.001 g, 7.30 μmol, 1 mL CH3CN). The stock solution of diazo compound (0.1 mL, 0.730 μmol) was added to the ribonuclease solution and the reaction was allowed to stir 4 hours at 37° C. Any remaining diazo compound was then quenched by adding 0.1 M acetic acid (0.1 mL) and the reaction was concentrated and the extent of labeling was determined by MALDI spectroscopy to be ˜3 labels per RNase A.

[1] = 4 hours at 37° C., MES buffer pH 5.5/acetonitrile

SMILES	extent of labeling of RNase A (average number of the eleven carboxylates esterified) [1]	extent of labeling of RNase A (average number of the eleven carboxylates esterified) (4 hours at 37° C., MES buffer pH 5.5/acetonitrile, listed as diazobenzylacetamide)	RNase A residues labelled (chemoselectivity) (200 equiv.)	extent of labeling of RNase A (200 equivalents of diazo compound, 4 hours at 37° C., MES buffer pH 5.5/acetonitrile) [label per RNase A]	RNase A residues labelled (chemoselectivity) (10 equiv.)
[N-]=[N+]=C(Cc1ccccc1)C(N)=O [compound 1, Diazobenzylacetamide]	incapable of labelling	no labeling was observed	comparably labelling residues Glu9, Asp14, Glu49, Glu111, and the C-terminal Val124	< 1	–
[N-]=[N+]=C1c2ccccc2-c2ccccc21 [compound 2, Diazofluorene]	~3 labels per RNase A	–	–	–	almost exclusively labelling Asp14, Glu49, Glu111, and Asp121
